These are literature values, as cited in patent publication US20240099974A1, “TREATMENT AGENT” (FUJIFILM Corporation, priority 2021, published 2024).

SMILES strings stand for the structures.

The conditions of the data set: iv; Mould et al., 2002, Ait-Oudhia, Mager and Straubinger 2014.

Consider `CC[C@@]1(O)C(=O)OCc2c1cc1n(c2=O)Cc2cc3c(CN(C)C)c(O)ccc3nc2-1` [topotecan], for which the “clearance in a case where topotecan is intravenously administered” value is 18.6 L/h.
